Results from US10787430B2, “Hemoglobin modifier compounds and uses thereof” (FronThera U.S. Pharmaceuticals LLC, priority 2016, dated 2020).
Where two headings read alike, the source gives them in different places.

Columns and labels:
[1] = Pharmacokinetic study in rats (plasma and red blood cell); format: in vivo; conditions: male, Sprague-Dawley, rat, oral, 7.2 mg/kg
Protocol: Rats (Sprague-Dawley, male, 220-280 g) were dosed with GBT-440 (HCl salt) and one of three compounds corresponding to Example 27, 29, and 38. The rats received oral (7.2 mpk) doses of the compound. Rats were fasted overnight before the experiments and provided with food four hours after dosing. The oral dosing formulations was prepared as follows: approximately 10 mg of compound was weighed precisely to an appropriate size of container, to which was added 2 mL of vehicle 0.5% methylcellulose in water and 8 μL 0.5% sodium dodecyl sulfate. The mixture was then transferred into a glass vial, and volume adjusted to appropriate volume with 0.5% methylcellulose to obtain a final concentration of 0.72 mg·mL^−1, and then vortexed and sonicated briefly.
Whole blood sample collection: Blood samples ([…]) were collected at pre-dose, 15, 30 min, 1, 2, 4, 8, 12 and 24 h via jugular vein into tubes and anticoagulated with 3.2% TSC (trisodium citrate). The proportion of anticoagulant and blood was 1:9 (v/v). The sampling time was recorded accordingly. The tubes were gently inverted several times to ensure mixing. Then 10 μL doses of whole blood sample was transferred to a new EP tube and duplicated in wet ice.
Plasma sample collection: The remaining whole blood was processed by centrifugation at 5,500 rpm for 10 min. The supernate was collected. All these whole blood and plasma samples were kept below −20° C. for 1 h prior to analysis.
(§1) Plasma sample preparation: An aliquot of 20 μL of sample was transferred to sample treatment tube (1.5 mL EP tube), and then 100 μL ACN (0.5% FA) containing Verapamil, 5 ng·mL^−1 and Glibenclamide, 50 ng·mL^−1 for protein precipitation was added. The mixture was vortexed for 30 min, and then centrifuged at 13000 rpm for 5 min at room temperature. After that, 70 μL of supernatant was transferred to a 96-Well Plate, to which 70 μL of water added and then vortexed for 10 min at room temperature. An aliquot of 10 μL of this mixture was analyzied using LC-MS/MS.
as §1, with “Whole blood” for “Plasma”, “10” for “20”, “500” for “100”, “water was” for “water”, “analyzed” for “analyzied”
Plasma and red blood cell concentration-time data were processed by linear regression analysis. All pharmacokinetic parameters were calculated using non-compartment model of Pharsight Phoenix 6.3.
Red blood cell concentrations were calculated according to the method below: Mass balance equation: Cb·VB=Cp·Vp+CBC·VBC Where, Cb=Concentration of whole blood; VB=Volume of whole blood; Cp=Concentration of plasma; Vp=Volume of plasma; CBC=Concentration of blood cell; VBC=Volume of blood cell. VBC=H·VB, where H is the hematocrit number. Vp=(1−H)·VB

[2] = system: sickled HbSS whole blood (RBC sickling); assay: Anti-sickling assay in HbSS sickled blood under hypoxic induction; format: cell-based, human; conditions: HbSS whole blood 26% Hct, 20 mins hypoxic induction; 0.2 mM compounds (FIG. 2)
Protocol: Materials: • Blood collected after informed consent from sickle cell individuals. • HBS buffer: 10 mM HEPES, 145 mM NaCl, pH 7.4 • Hemox buffer: Buffer provided for the hemox analyzer • Control Compound stock solution in DMSO (50 mM) stored at RT • Control Compound work solution (CWS): 10 μl of DMSO was added by Hamilton to 90 μl of HBS buffer (20 mM Hepes, 145 mM NaCl, pH 7.4) to create a working solution with a final concentration of 5 mM drug and 10% DMSO). • Compound stock solution in DMSO (50 mM) stored at RT • Compound work solution (WS): 10 μl of DMSO was added by Hamilton to 90 μl of HBS buffer (20 mM Hepes, 145 mM NaCl, pH 7.4) to create a working solution with a final concentration of 5 mM drug and 10% DMSO). • DMSO buffer: 10% DMSO (DB), same as WS but without drug. This will be used to maintain DMSO the same for different drug incubations. Test Protocol:
Collect blood from Clinic: Blood were collected after informed consent according to an approved IRB protocol. • Run Advia 120 analysis on SCD blood, to determine Hct. • Dilute blood to 20% Hct with HBS to total volume of 3 ml. • This cell suspension (CS) will be used for all experiments.
Incubation • 1. 200 μl CS • 2. 200 μl CS+20 μl CWS (5 mM diluted 10 times=0.5 mM control final)−(1% DMSO) • 3. 200 μl CS+20 μl WS (5 mM diluted 10 times=0.5 mM control final)−(1% DMSO) • 4. 200 μl CS+8 μl WS (0.2 mM drug final)+DB−(1% DMSO) • Incubate 30 minutes at 37° C.
50 μl into 1 ml HBS+2% BSA buffer. Eight time points (0-20 minutes) at 2% oxygen, 10,000 events each)
The sickling runs provide sets samples that need to be run on the AMNIS image flow and are subsequently analyzed with pixel analysis software.
Drug was provided at 50 mM concentration in DMSO, and stored at room temperature until use. 10 μl of DMSO was added by Hamilton to 90 μl of HBS buffer (20 mM Hepes, 145 mM NaCl, pH 7.4) to create a working solution with a final concentration of 5 mM drug and 10% DMSO). Blood was collected from a sickle cell patient in EDTA anticoagulant. To 200 μl of whole blood, a 20 or 8 μl of working solution was added resulting in a final drug concentration of 0.5 mM or 0.2 mM respectively. The DMSO concentration in both was corrected to 1%. The final hematocrit was measured by ADVIA analysis to be 26%. […] The delta hemox (%) comparing Example 29e with GBT440 is shown in FIG. 1A (0.2 mM) and FIG. 1B (0.5 mM).
Anti-sickling is shown in FIG. 2 with M: maximum percentage of sickled cells during 20 mins of hypoxic induction, T: time needed to reach 50% of M, and Z: baseline percentage of sickled cells prior to hypoxic induction.

In the case of `[2H]C([2H])(Oc1cccc(O)c1C=O)c1cncnc1-c1ccnn1C(C)C` [Example 38, 2-hydroxy-6-((4-(1-isopropyl-1H-pyrazol-5-yl)pyrimidin-5-yl)methoxy-d2)benzaldehyde], the AUC(0-t) ([1]; red blood cells, red blood cell (calculated by mass balance from whole blood and plasma), read-out: AUC0-24 h RBC) is reported as 1730 µg·h/mL, the Cmax ([1]; red blood cells, red blood cell (calculated by mass balance from whole blood and plasma), read-out: Cmax RBC) is reported as 116 µg/mL and the half-life ([1]; red blood cells, red blood cell, read-out: T1/2 RBC (converted)) is reported as 11 h. For the same compound, the AUC(0-t) ([1]; plasma, read-out: AUC0-24 h Plasma) was 10.7 µg·h/mL, the Cmax ([1]; plasma, read-out: Cmax Plasma) was 0.753 µg/mL and the half-life ([1]; plasma, read-out: T1/2 Plasma (converted)) was 11 h. The “Reduction in % sickled cells compared to untreated” value [2] was −30.6%.
